Measured values taken from patent publication EP2589385A1, “TRIPLE COMBINATION FOR THE TREATMENT OF CANCER” (Fundación Centro Nacional de Investigaciones Oncológicas, priority 2011, dated 2013).

Assays:
[1] = system: pancreatic cancer cells (185 and A6L); test: Invasion assay, modified Boyden chamber with Matrigel; format: cell-based, human; settings: for effects of Nodal and Activin on cell invasiveness: cells pretreated with inhibitor at 20µM
Protocol: Invasion assays were performed using modified Boyden chambers filled with Matrigel™ (BioCoat®, BD Biosciences, Heidelberg, Germany). […] 500µl of cell suspensions containing 5x10^4 pre-treated or untreated cells were added to the Matrigel™ coated inserts, and 750µl of serum-free medium with or without 300ng/ml recombinant human Nodal was added to the lower chamber. The assay chambers were incubated for 22h at 37°C. Invaded cells were fixed in 4% PFA and stained with DAPI. The ratios of cells in the lower chamber versus total seeded cells (in per cent) were calculated.

[2] = system: A6L and 185 cells; test: Sphere formation assay (CSC self-renewal); format: cell-based, human; settings: for sphere formation / sphere forming capacity: 10, 20, and 40µM, 7 days, vs control
Protocol: (§1) Human pancreatic tumours were obtained with written informed consent from all patients. For in vitro studies, tissue fragments were minced, enzymatically digested with collagenase (Stem Cell Technologies, Vancouver, BC) for 90 min at 37°C (Mueller TM et al. Gastroenterology 2009 137(3):1102-13) and after centrifugation for 5 min at 1200 rpm the pellets were resuspended and cultured in RPMI, 10%FBS and 50units/ml pen/strep. Pancreatic cancer spheres were generated by placing the pancreatic cancer cell in suspension (20,000 cells/ml) in serum-free DMEM/F12 media, supplemented with B27 (1:50, Invitrogen), 20ng/ml bFGF and 50units/ml pen/strep. After 7 days of incubation, spheres were typically >75µm big with ~97% CD133high. For serial passaging, 7-day-old spheres were harvested using 40µm cell strainers, dissociated to single cells with trypsin, and then re-grown for 7 days. Cultures were kept no longer than 4 weeks after recovery from frozen stocks.

[3] = system: human primary pancreatic cancer cells (A6L and 185); test: Viability of adherent cells after inhibitor pretreatment; format: cell-based; settings: pretreatment with inhibitor
[4] = system: primary human pancreatic cancer tissue xenografts; test: In vivo treatment of primary human pancreatic cancer tissue xenografts; set-up: species or system female NMRI nu/nu mice
Protocol: (§2) Single-cell suspensions were either orthotopically implanted into the pancreas of female NMRI nu/nu mice (Janvier, Le Genest-Saint-Isle, France) or 2mm3 pieces of primary, in vivo expanded pancreatic cancer tissue were subcutaneously implanted, and mice were randomized to the respective treatment groups. Size and weight of the pancreatic tumours were monitored. Gemcitabine was administered twice a week (125 mg/kg i.p.). SB431542 was used at 25 mg/kg and CUR199691 at 100 mg/kg, both by oral gavages twice daily for three weeks.

[5] = system: L3.6pl cells; test: In vivo treatment of established orthotopic pancreatic cancer cell line xenografts; set-up: species or system female NMRI nu/nu mice
Protocol: as §2
Mice were analysed with a 3-Tesla MRI system (Magnetom Tim Trio, Siemens, Erlangen, Germany) using a dedicated small animal coil and T2-weighted scanning.

[6] = system: CD133+ CSC; settings: treatment with gemcitabine; cited from earlier work
[7] = system: xenotransplanted human pancreatic cancer; settings: in vivo therapy with gemcitabine; cited from earlier work
[8] = system: cells isolated from harvested tumours; test: Sphere formation capacity of cells isolated from treated tumours on day 100; format: cell-based, human; settings: cells from tumours harvested on day 100 (Fig. 7G, left panel)
Protocol: as §1

[9] = system: phosphorylation of Smad2; test: Smad2 phosphorylation assay (western blot); format: cell-based, human; settings: simultaneous treatment with inhibitor and rNodal or rActivin
Excerpt: PVDF membranes containing electrophoretically separated proteins from human primary pancreatic cancer cells and spheres were probed with mouse antibodies against Nodal (ab556676; Abcam, Inc.), Smad2 (3103; Cell Signalling Technology, Inc.), GAPDH (ab8245-100; Abcam, Inc.), Smad4 (sc-7966; Santa Cruz Biotechnology, Inc.) and rabbit antibody against pSmad2 (3108; Cell Signalling Technology, Inc.), treated with peroxidase-conjugated goat anti-mouse or anti-rabbit Ig secondary antibody (Sigma), and then visualized by enhanced chemoluminescence (Amersham, Inc.). Human primary pancreatic cancer cells were serum-starved for 3h in RPMI (GIBCO). Following starvation, the cells were incubated for 30 min at 37°C with recombinant human Nodal or Activin proteins (300 ng/ml and 100 ng/ml, respectively; R&D) either alone or in the presence of the SB431542 (10 µM, Sigma). Anti-Smad2 and anti-phospho-Smad2 (Ser465/467) Antibodies (Cell Signalling Technology) were used, following the manufacturer's instructions.

[10] = system: CD133+ cells; test: Cell cycle analysis with BrdU flow kit; format: cell-based, human
[11] = system: CD133+ population; test: CD133 content by flow cytometry after in vitro treatment; format: cell-based, human
Protocol: To identify pancreatic CSC, the following antibodies were used: anti-CD133/1-APC or PE; CD133/2-APC (all Miltenyi, Bergisch-Gladbach, Germany) was used for purity testing after MACSorting; EpCAM-FITC, CD44-PE or appropriate isotype-matched control antibodies (Beckton Dickinson, Heidelberg, Germany). Propidium iodide or 7-AAD was used for exclusion of dead cells (eBiosciences, San Diego, CA). Samples were analysed by flow cytometry using a FACS Canto II (BD) and data were analysed with FlowJo 9.2 software (Ashland, Oregon).

Cc1cccc(-c2nn3c(c2-c2ccnc4ccc(C(N)=O)cc24)CCC3)n1 [LY2157299]
enhanced invasiveness of CSC treated with rTGF-β ([1]; Alk5 inhibitor with rTGF-β): abrogated the enhanced invasiveness of CSC treated with rTGF-β
sphere formation / sphere forming capacity [2]: did not display any effects on sphere forming capacity
sphere forming capacity ([2]; summary statement of Example 8 (Fig. 4A)): neither the Alk5 inhibitor LY2157299 nor the TGF-β receptor II neutralizing antibodies resulted in significant changes of sphere forming capacity
viability of adherent cells [3]: did not affect the viability of adherent cells

Nc1ccn([C@@H]2O[C@H](CO)[C@@H](O)C2(F)F)c(=O)n1 [gemcitabine, 4-amino-l-[3,3-difluoro-4-hydroxy-5-(hydroxymethyl)tetrahydrofuran-2-yl]-1 H-pyrimidin-2-one]
histological differentiation of remaining tumours ([4]; day 100): poor differentiation
tumour growth after gemcitabine withdrawal ([4]; long-term follow-up): reaccelerated in growth
survival / long-term survival ([5]; follow-up until day 100 (Fig. 7C)): significantly prolonged survival
tumour take rate ([5]; orthotopic cell line xenografts): 100%
median survival ([5]; orthotopic cell line xenografts, treatment started one week after injection, control 32 days): 54 days
effect on CD133+ CSC [6]: no detectable effect
CD133+ cells in the residual tumour tissue [7]: significant enrichment of CD133+ cells in the residual tumour tissue
sphere forming capacity [8]: strong sphere forming capacity

Cc1cccc(-c2[nH]c(C(C)(C)C)nc2-c2ccc3c(c2)OCO3)n1 [SB505124]
effects of Nodal and Activin on cell invasiveness [1]: significantly attenuated the effects of Nodal and Activin on cell invasiveness

NC(=O)c1ccc(-c2nc(-c3ccc4c(c3)OCO4)c(-c3ccccn3)[nH]2)cc1 [SB431542]
effects of Nodal and Activin on cell invasiveness [1]: significantly attenuated the effects of Nodal and Activin on cell invasiveness
cell invasion of sphere-derived cells ([1]; conditioned medium from PSC cells in the lower compartment (Fig. 17B)): Cell invasion was abrogated
reversal of rNodal/rActivin-enhanced phosphorylation of Smad2 [9]: almost reversed this enhanced phosphorylation of Smad2
sphere formation / sphere forming capacity [2]: dose-dependently (10, 20, and 40µM) blocked sphere formation as compared to control
percentage of CD133+ cells in S phase [10]: did not affect the percentage of CD133+ cells in S phase
percentage of apoptotic CD133+ cells ([10]; result in words): nor did it increase the percentage of apoptotic CD133+ cells
viability of adherent cells [3]: did not affect the viability of adherent cells
time until the CD133+ population replenished ([11]; after four days of treatment with SB431542 alone): ≤ 48 h
CD133 content / CD133+ population ([11]; four days of treatment): marked decrease in CD133 content
